The results in this text go back to patent US20100081702A1 (priority 2007, published 2010).

The subject of the assay is concanavalin A (ConA)-induced mouse hepatitis models (T cell-dependent liver injury models). Description: concanavalin A (ConA)-induced mouse hepatitis model, AST and ALT in serum. On the procedure: Aspartate aminotransferase (AST) and alanine aminotransferase (ALT) in serum were measured as indices for liver injury in concanavalin A (ConA)-induced mouse hepatitis models used as T cell-dependent liver injury models. The inhibitory effects of compounds of the present invention on liver injury were studied.
A compound suspension was orally administered at a dose of 1 mg/kg to male BALE/c mice. 24 hours after the oral administration, ConA was intravenously administered at a dose of 20 mg/kg to the tails of the mice. 24 hours after the ConA administration, blood was collected from the mice, and AST and ALT in serum were measured.

SMILES strings stand for the structures.

In the case of `COc1ccc(CCCC(=O)c2ccc(CC[C@@](C)(N)CO)n2C)cc1C` [Compound 1], where the note is “result in words, 1 mg/kg oral, ConA-induced mouse hepatitis”, the “inhibitory effects on ALT level elevating effects” value is “significant inhibitory effects”. Where the note is “serum, compound 1 mg/kg oral 24 hours before ConA 20 mg/kg intravenous, blood collected 24 hours after ConA, **P < 0.01, *P < 0.05 vs. solvent (solvent 236.9 ± 52.6, negative control 105.2 ± 26.1)”, the “AST level (mean ± S.E., IU/L)” value was 97.4 ± 9.1** IU/L. Further, the “ALT level (mean ± S.E., IU/L)” value (serum, compound 1 mg/kg oral 24 hours before ConA 20 mg/kg intravenous, blood collected 24 hours after ConA, **P <0.01, *P <0.05 vs. solvent (solvent 454.1 ± 137.8, negative control 76.4 ± 14.2)) is 101.6 ± 19.6** IU/L.
